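Cells were grown in 96-well plates and exposed to each compound for 48 hours at five concentrations; endpoints were interpolated linearly between bracketing concentrations, or set to the highest concentration if not reached. GI50: concentration for 50% inhibition of growth.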 Calls of active or inactive are those of the source. Cut-off read from the data, not from the text of the source: active = GI50 up to about 1.1 µM and inactive = higher.
Experiments:
Experiment in all cases: growth of human tumour cells (NCI), 48 h
[1] = tested on: KM12
[2] = tested on: OVCAR-5
[3] = tested on: UACC-62
[4] = tested on: HCT-116
[5] = tested on: SF-268
[6] = tested on: U-251
[7] = tested on: HL-60
[8] = tested on: HOP-62
[9] = tested on: SF-539
[10] = tested on: NCI-H460
[11] = tested on: HT-29
[12] = tested on: MDA-MB-231
[13] = tested on: SN12C
[14] = tested on: SW-620
[15] = tested on: CCRF-CEM
[16] = tested on: UACC-257
[17] = tested on: MOLT-4
[18] = tested on: 786-0
[19] = tested on: NCI-H522

Measured: GI50

CSc1nc(-c2ccc(C)cc2)c(C#N)c(=O)[nH]1
inactive: [1] > 100 µM | [2] > 100 µM | [3] > 100 µM | [4] > 100 µM | [5] > 100 µM | [6] > 100 µM | [7] > 100 µM | [8] > 100 µM | [9] > 100 µM | [10] > 100 µM | [11] > 100 µM | [12] > 100 µM | [13] > 100 µM | [14] > 100 µM | [15] > 100 µM | [16] > 100 µM | [17] > 100 µM | [18] > 100 µM | [19] > 100 µM

C=CCOC1=C(OC(C)=O)C(C2COC(C)(C)O2)OC1=O (stereo unspecified)
inactive: [1] 20.7 µM | [2] 17.5 µM | [3] 22.2 µM | [4] 17.6 µM | [5] 31.6 µM | [6] 26.5 µM | [7] 19.6 µM | [8] > 100 µM | [9] 33.2 µM | [10] 22 µM | [11] 19.9 µM | [12] 17.1 µM | [13] 24.5 µM | [14] 16.5 µM | [15] 17.4 µM | [16] 18.2 µM | [17] 21.6 µM | [18] 18.7 µM | [19] 2.19 µM

O=C1C=CC(O)(C#CCO)C=C1
inactive: [1] 17.5 µM | [2] 12.1 µM | [3] 15.6 µM | [4] 15.8 µM | [5] 17.6 µM | [6] 11.6 µM | [7] 3.17 µM | [8] 30.5 µM | [9] 17 µM | [10] 21.2 µM | [11] 14.3 µM | [12] 18.7 µM | [13] 15.9 µM | [14] 4.62 µM | [15] 11.6 µM | [16] 14.6 µM | [17] 10.3 µM | [18] 9.91 µM | [19] 1.95 µM

CC1=NN(c2nc(N)nc(CSCc3nc(N)nc(N(C)C)n3)n2)C(C)(C)C1
inactive: [1] > 100 µM | [2] > 100 µM | [3] > 100 µM | [4] > 100 µM | [5] > 100 µM | [6] > 100 µM | [7] > 100 µM | [8] > 100 µM | [9] > 100 µM | [10] > 100 µM | [11] > 100 µM | [12] > 100 µM | [13] > 100 µM | [14] > 100 µM | [15] > 100 µM | [16] > 100 µM | [17] > 100 µM | [18] > 100 µM | [19] > 100 µM

COc1ccc(OC)c2sc(N3C(=O)/C(=C/c4cccc([N+](=O)[O-])c4)N=C3c3ccccc3)nc12
inactive: [1] 42.2 µM | [2] > 100 µM | [3] 36.4 µM | [4] > 100 µM | [5] 57.5 µM | [6] 32 µM | [7] 20.8 µM | [8] 54.1 µM | [9] 41.1 µM | [10] 77.1 µM | [11] > 100 µM | [12] > 100 µM | [13] > 100 µM | [14] 23.7 µM | [15] 24.9 µM | [16] 38.3 µM | [17] 21.8 µM | [18] 49.7 µM | [19] 42.6 µM

CC(C)(C)OC(=O)NCC(=O)N(CCc1ccc(Cl)c(Cl)c1)CCN1CCCC1
inactive: [1] 16.3 µM | [2] 18.9 µM | [3] 17.4 µM | [4] 13.7 µM | [5] 15.3 µM | [6] 15.2 µM | [7] 12.1 µM | [8] 13.5 µM | [9] 16.8 µM | [10] 15.8 µM | [11] 6.32 µM | [12] 13.1 µM | [13] 17.3 µM | [14] 16.6 µM | [15] 10.6 µM | [16] 15.7 µM | [17] 8.41 µM | [18] 14 µM | [19] 14.5 µM

O=C1NC(=O)C(C(CC(=O)c2ccc(Cl)cc2)c2ccc(Cl)cc2)C(=O)N1 (stereo unspecified)
inactive: [1] 37.8 µM | [2] > 100 µM | [3] > 100 µM | [4] 34 µM | [5] 36.2 µM | [6] > 100 µM | [7] > 100 µM | [8] > 100 µM | [9] 18 µM | [10] > 100 µM | [11] > 100 µM | [12] > 100 µM | [13] > 100 µM | [14] > 100 µM | [15] 42.2 µM | [16] > 100 µM | [17] 74 µM | [18] > 100 µM | [19] > 100 µM

Clc1ccc(-c2nn3c(-c4ccncc4)nnc3s2)cc1
inactive: [1] > 100 µM | [2] > 100 µM | [3] > 100 µM | [4] > 100 µM | [5] 37.4 µM | [6] 25.9 µM | [7] > 100 µM | [8] 20.8 µM | [9] > 100 µM | [10] > 100 µM | [11] > 100 µM | [12] 66.7 µM | [13] > 100 µM | [14] > 100 µM | [15] > 100 µM | [16] > 100 µM | [17] > 100 µM | [18] 11 µM | [19] > 100 µM

CC(=O)C1(C(=O)C(=[N+]=[N-])S(=O)(=O)c2ccccc2)CC1
inactive: [1] > 100 µM | [2] > 100 µM | [3] > 100 µM | [4] > 100 µM | [5] > 100 µM | [6] > 100 µM | [7] 74.1 µM | [8] > 100 µM | [9] > 100 µM | [10] > 100 µM | [11] > 100 µM | [12] > 100 µM | [13] > 100 µM | [14] > 100 µM | [15] 40.2 µM | [16] > 100 µM | [17] 83.8 µM | [18] > 100 µM | [19] > 100 µM

CCCCCC[C@H]1C(=O)O[C@H](C)[C@H](NC(=O)c2cccc(NC=O)c2OC)C(=O)O[C@@H](C)[C@@H]1OC(=O)C(C)CC.CCCCCC[C@H]1C(=O)O[C@H](C)[C@H](NC(=O)c2cccc(NC=O)c2OC)C(=O)O[C@@H](C)[C@@H]1OC(=O)CC(C)C (stereo partly specified)
inactive: [1] 18.8 µM | [2] > 100 µM | [3] 8.49 µM | [4] 10.1 µM | [5] 26.1 µM | [6] 11.7 µM | [7] 4.53 µM | [8] > 100 µM | [9] 29.3 µM | [10] 4.83 µM | [11] 8.59 µM | [12] 15.8 µM | [13] 29.6 µM | [14] 14.5 µM | [15] 6.08 µM | [16] 3.96 µM | [17] 6.65 µM | [18] 18.6 µM | [19] 12.2 µM

O=C1OC2(C(F)(F)F)Oc3ccccc3CN2C12CCCCC2 (stereo unspecified)
inactive: [1] 23.8 µM | [2] 22 µM | [3] 28 µM | [4] 20.2 µM | [5] 35.6 µM | [6] 26 µM | [7] 16.5 µM | [8] 29.2 µM | [9] 33.4 µM | [10] 22.5 µM | [11] 23.7 µM | [12] 24.2 µM | [13] 24.7 µM | [14] 35.6 µM | [15] 25.1 µM | [16] 27 µM | [17] 18.1 µM | [18] 35.3 µM | [19] 24.3 µM

CCOC1=NC(C(F)(F)F)(C(F)(F)F)N=C(/N=C(/N)N(C)C(C(C)C)P(=O)(OC(C)C)OC(C)C)O1 (stereo unspecified)
inactive: [1] 78.2 µM | [2] > 100 µM | [3] 54.7 µM | [4] 82.2 µM | [5] 48.4 µM | [6] 64.9 µM | [7] 27.7 µM | [8] > 100 µM | [9] > 100 µM | [10] > 100 µM | [11] > 100 µM | [12] > 100 µM | [13] 76 µM | [14] 49.5 µM | [15] 23.8 µM | [16] 70.3 µM | [17] 20.1 µM | [18] > 100 µM | [19] 27.9 µM

CCSc1c2cc(OC)ccc2nc2ccc(OC)cc12
inactive: [1] 11.2 µM | [2] 8.09 µM | [3] 10.9 µM | [4] 6.05 µM | [5] 10.9 µM | [6] 12.5 µM | [7] 2.62 µM | [8] 19.1 µM | [9] 15.3 µM | [10] 13.2 µM | [11] 17.8 µM | [12] 8.57 µM | [13] 14.3 µM | [14] 17.7 µM | [15] 5.56 µM | [16] 9.98 µM | [17] 3.22 µM | [18] 16 µM | [19] 9.33 µM

COc1ccccc1C(=O)Nc1ccc(Cl)c(C(=O)OC(C)C)c1
inactive: [1] 25.9 µM | [2] > 50 µM | [3] 25.9 µM | [4] 39.1 µM | [5] > 50.6 µM | [6] 43 µM | [7] > 41.1 µM | [8] 48 µM | [9] > 67.3 µM | [10] 37.4 µM | [11] 27.4 µM | [12] > 100 µM | [13] 52.2 µM | [14] > 61.1 µM | [15] 36.4 µM | [16] 30.5 µM | [17] > 45.8 µM | [18] 38 µM | [19] 33.2 µM

— ChEMBL document CHEMBL1201862, “PubChem BioAssay data set” (2004)
